The results in this text go back to patent US8629171B2, “Crystalline form of methyl ((1S)-1-((25)-2-(5-(4'-(2-((25)-1((2S)-2-((methoxycarbonyl)amino)-3-methylbutanoyl)-2-pyrrolidinyl)-1H-imidazol-2-yl)-1-pyrrolidinyl)carbonyl)-2-methylpropyl)carbamate dihydrochloride salt” (Bristol-Myers Squibb Company, priority 2007, dated 2014).

The series in a line: aqueous solubility. Format: physicochemical. Conditions: crystalline Form N-2 of the dihydrochloride salt.

Where a name gives a salt, the structure may show the parent alone.

As to `COC(=O)N[C@H](C(=O)N1CCC[C@H]1c1nc(-c2ccc(-c3ccc(-c4c[nH]c([C@@H]5CCCN5C(=O)[C@@H](NC(=O)OC)C(C)C)n4)cc3)cc2)c[nH]1)C(C)C` [Compound (I), methyl ((1S)-1-(((2S)-2-(5-(4′-(2-((2S)-1-((2S)-2-((methoxycarbonyl)amino)-3-methylbutanoyl-2-pyrrolidinyl)-1H-imidazol-5-yl)-4-biphenylyl)-1H-imidazol-2-yl)-1-pyrrolidinyl)carbonyl)-2-methylpropyl)carbamatedihydrochloride salt], the aqueous solubility result is recorded as “high”.
